From ChEMBL document CHEMBL5233278, “Recent Advances in the Medicinal Chemistry of Farnesoid X Receptor” (J Med Chem, 2021)
Values belong to the compound of their own block, whether it stands above or below them.

Legend:
[1] = Metabolic stability in human liver microsomes assessed as half life in presence of NADPH incubated up to 60 mins by LC-MS/MS analysis; type: ADME, Microsome
[2] = biological target: T1, Bile acid receptor (Homo sapiens, UniProt Q96RI1); assay: Agonist activity at human FXR
T1 sequence (Q96RI1 whole entry): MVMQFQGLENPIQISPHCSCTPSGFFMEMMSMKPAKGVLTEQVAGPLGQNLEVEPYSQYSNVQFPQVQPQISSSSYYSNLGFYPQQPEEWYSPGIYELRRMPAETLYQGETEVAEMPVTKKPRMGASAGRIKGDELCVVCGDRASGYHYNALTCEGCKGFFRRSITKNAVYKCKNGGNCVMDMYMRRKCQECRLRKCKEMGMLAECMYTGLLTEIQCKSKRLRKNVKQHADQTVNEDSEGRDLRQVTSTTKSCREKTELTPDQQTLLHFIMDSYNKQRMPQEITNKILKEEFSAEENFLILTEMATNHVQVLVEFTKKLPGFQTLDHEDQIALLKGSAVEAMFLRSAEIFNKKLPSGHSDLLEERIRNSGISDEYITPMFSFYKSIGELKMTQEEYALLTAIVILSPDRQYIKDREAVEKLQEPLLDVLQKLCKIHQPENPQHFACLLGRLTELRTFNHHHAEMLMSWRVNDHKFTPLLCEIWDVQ

[3] = biological target: T1, Bile acid receptor; assay: Agonist activity at human GST-tagged FXR incubated for 1 hrs by alphascreen assay
[4] = biological target: T2, Bile acid receptor (Homo sapiens) (UniProt Q96RI1); assay: Agonist activity at FXR in HEK293 cells assessed as maximum efficacy relative to control; type: cell-based; details: filed as agonist
T2 sequence (whole entry): T1 sequence (Q96RI1 whole entry)

[5] = AUC(0 to 24 hrs) in Sprague-Dawley rat liver at 5 mg/kg, po measured up to 24 hrs by LC-MS-MS analysis; type: ADME, organism-based; parameters: dose 5 mg/kg, time < 24 hrs, route po; details: in vivo
[6] = AUC(0 to 24 hrs) in Sprague-Dawley rat serum at 5 mg/kg, po measured up to 24 hrs by LC-MS-MS analysis; type: ADME, organism-based; parameters: dose 5 mg/kg, time < 24 hrs, route po
[7] = Cmax in Sprague-Dawley rat liver at 5 mg/kg, po measured up to 24 hrs by LC-MS-MS analysis; type: ADME, organism-based; parameters: time < 24 hrs, dose 5 mg/kg, route po
[8] = Cmax in Sprague-Dawley rat serum at 5 mg/kg, po measured up to 24 hrs by LC-MS-MS analysis; type: ADME, organism-based; parameters: dose 5 mg/kg, time < 24 hrs, route po
[9] = AUC(0 to 24 hrs) in Sprague-Dawley rat serum at 1 mg/kg, iv measured up to 24 hrs by LC-MS-MS analysis; type: ADME, organism-based; parameters: dose 1 mg/kg, time < 24 hrs, route iv
[10] = Cmax in Sprague-Dawley rat serum at 1 mg/kg, iv measured up to 24 hrs by LC-MS-MS analysis; type: ADME, organism-based; parameters: time < 24 hrs, dose 1 mg/kg, route iv
[11] = biological target: T1, Bile acid receptor; assay: Agonist activity at FXR in HEK293T cells by steady-glo luciferase assay; type: cell-based
[12] = biological target: Voltage-gated inwardly rectifying potassium channel KCNH2 (Homo sapiens, UniProt Q12809); assay: Inhibition of hERG; type: toxicity
[13] = biological target: Bile acid receptor (Homo sapiens) (UniProt Q96RI1); assay: Agonist activity at FXR in human HepG2 cells at 3 uM relative to control; details: filed as agonist
[14] = biological target: Bile acid receptor (Homo sapiens) (UniProt Q96RI1); assay: Agonist activity at FXR in human HepG2 cells coexpressing BSEP at 0.3 uM relative to control; details: filed as agonist
[15] = biological target: T1, Bile acid receptor; assay: Agonist activity at FXR in human HeLa cells by Dual-Glo luciferase assay; type: cell-based
[16] = Oral bioavailability in Sprague-Dawley rat at 5 mg/kg administered via gavage by LC-MS/MS analysis; type: ADME, organism-based; details: in vivo
[17] = biological target: T1, Bile acid receptor; assay: Agonist activity at human FXR in expressed in CHO cells by luciferase reporter assay; type: cell-based
[18] = Stability in human plasma assessed as half life; type: ADME, cell-free
[19] = biological target: T1, Bile acid receptor; assay: Agonist activity at FXR in HEK293T cells by lanthascreen TR-FRET assay; type: cell-based
[20] = biological target: T1, Bile acid receptor; assay: Agonist activity at human FXR incubated for 24 hrs by luciferase reporter assay

Sequence of Voltage-gated inwardly rectifying potassium channel KCNH2 (Q12809 whole entry): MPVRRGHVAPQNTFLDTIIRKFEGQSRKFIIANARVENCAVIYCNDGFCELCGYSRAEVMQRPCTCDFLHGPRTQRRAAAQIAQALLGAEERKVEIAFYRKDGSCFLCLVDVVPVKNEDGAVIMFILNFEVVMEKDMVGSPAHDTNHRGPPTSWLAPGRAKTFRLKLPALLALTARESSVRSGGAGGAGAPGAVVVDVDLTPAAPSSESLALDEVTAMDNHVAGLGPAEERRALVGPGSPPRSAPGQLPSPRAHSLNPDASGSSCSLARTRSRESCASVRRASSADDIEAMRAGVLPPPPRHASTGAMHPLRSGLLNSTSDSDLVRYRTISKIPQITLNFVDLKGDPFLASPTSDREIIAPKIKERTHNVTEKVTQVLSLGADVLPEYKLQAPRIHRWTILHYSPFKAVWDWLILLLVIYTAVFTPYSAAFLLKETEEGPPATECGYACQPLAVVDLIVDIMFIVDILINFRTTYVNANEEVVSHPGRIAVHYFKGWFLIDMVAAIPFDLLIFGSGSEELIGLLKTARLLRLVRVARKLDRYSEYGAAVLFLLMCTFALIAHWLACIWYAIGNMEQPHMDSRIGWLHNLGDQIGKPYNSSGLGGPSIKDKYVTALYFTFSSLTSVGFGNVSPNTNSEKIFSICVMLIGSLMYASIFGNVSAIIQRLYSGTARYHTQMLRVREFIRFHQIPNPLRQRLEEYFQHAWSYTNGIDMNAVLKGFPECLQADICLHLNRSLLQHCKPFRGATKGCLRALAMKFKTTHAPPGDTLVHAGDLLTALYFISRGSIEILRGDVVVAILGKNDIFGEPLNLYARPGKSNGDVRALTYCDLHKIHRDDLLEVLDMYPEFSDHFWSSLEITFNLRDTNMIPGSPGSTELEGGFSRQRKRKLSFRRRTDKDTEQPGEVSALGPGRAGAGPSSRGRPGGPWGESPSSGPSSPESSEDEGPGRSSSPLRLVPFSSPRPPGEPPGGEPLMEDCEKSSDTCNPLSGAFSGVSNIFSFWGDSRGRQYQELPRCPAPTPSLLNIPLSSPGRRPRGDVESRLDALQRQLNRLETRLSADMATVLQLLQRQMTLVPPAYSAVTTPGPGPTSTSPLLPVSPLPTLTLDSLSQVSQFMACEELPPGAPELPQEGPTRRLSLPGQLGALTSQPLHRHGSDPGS

Compound: O=C(O)c1ccc(-c2csc(N3[C@@H]4CC[C@H]3C[C@@H](OCc3c(-c5ccccc5OC(F)(F)F)noc3C3CC3)C4)n2)cc1C(F)(F)F
half-life [1]: 2.5 h

Compound: CC(C)Oc1cc(C(=O)NS(=O)(=O)N2CCCC2)cc2sc(O[C@@H]3CO[C@H]4[C@H]3OC[C@H]4OCc3c(-c4c(Cl)cccc4Cl)noc3C3CC3)nc12
EC50 [2]: < 30 nM

Compound: O=C(O)c1ccc(-c2csc(N3CCC(OCc4c(-c5c(Cl)cccc5Cl)noc4C4CC4)CC3)n2)cc1
Emax [4]: 101%
AUC [5]: 14971 ng·h/g
AUC(0-t) at 24 h [6]: 1180 ng·h/mL
Cmax [7]: 3370 ng/g
Cmax [8]: 252 ng/mL
AUC(0-t) at 24 h [9]: 2410 ng·h/mL
Cmax [10]: 4340 ng/mL
EC50 [11]: 12 nM

Compound: Cc1cc(OCc2c(-c3c(Cl)cccc3Cl)noc2C2CC2)ccc1C1=NOC(c2cc(C(=O)O)nn2C(C)C)C1 (configuration not stated)
IC50 [12]: > 30000 nM

Compound: CC(C)Oc1cc(C(=O)NS(=O)(=O)N2CCCCC2)cc2sc(O[C@@H]3CO[C@H]4[C@H]3OC[C@H]4OCc3c(-c4c(Cl)cccc4Cl)noc3C3CC3)nc12
EC50 [2]: < 30 nM

Compound: O=C(O)c1ccc2c(c1)Oc1ccc(OCc3c(-c4ccccc4OC(F)(F)F)noc3C3CC3)nc1C1(CC1)C2
bioavailability [16]: 71.3%

Compound: O=C(O)c1cccc(NC(=O)c2ccc(OCCCCc3ccccc3)cc2)c1
EC50 [15]: 26 nM

Compound: Cc1cc(OCc2c(-c3c(Cl)cccc3Cl)noc2C2CC2)ccc1C1=NOC(c2cc(C(=O)O)nn2C)C1 (configuration not stated)
IC50 [12]: > 30000 nM
EC50 [11]: 10 nM

Compound: C[C@H]1CC(OCc2c(-c3c(Cl)cccc3Cl)noc2C2CC2)C[C@H](C)N1c1nc2ccc(C(=O)O)cc2s1 (some centres not stated)
Activity [13]: 88%
Activity [14]: 100%

Compound: CC[C@H]1[C@@H](O)[C@@H]2[C@H](CC[C@]3(C)[C@@H]([C@H](C)COC(=O)NS(=O)(=O)c4ccc(OC(C)C)cc4)CC[C@@H]23)[C@@]2(C)CC[C@@H](O)C[C@@H]12
EC50 [17]: < 1 nM

Compound: CC[C@H]1[C@@H](O)[C@@H]2[C@H](CC[C@]3(C)[C@@H]([C@H](C)CCNC(=O)NS(=O)(=O)c4ccc(C)cc4)CC[C@@H]23)[C@@]2(C)CC[C@@H](O)[C@H](F)[C@@H]12
EC50 [20]: 18 nM

More lines, main results first:

EC50 [3]: 20 nM
Compound: O=C(O)c1ccc(N2C(=O)CCc3cc(OCc4c(-c5c(Cl)cccc5Cl)noc4C4CC4)ccc32)nc1

Activity [13]: 100%
Compound: O=C(O)c1ccc([C@@H]2C[C@H]2c2ccc(OCc3c(-c4c(Cl)cccc4Cl)noc3C3CC3)cc2Cl)cc1
Activity [14]: 60%

EC50 [3]: 9 nM
Compound: O=C1CCc2cc(OCc3c(-c4c(Cl)cccc4Cl)noc3C3CC3)ccc2N1c1ncc(O)cc1F

EC50 [11]: 5 nM
Compound: Cc1cc(OCc2c(-c3c(Cl)cccc3Cl)noc2C2CC2)ccc1C1=NOC(c2ccc(C(=O)O)nc2)C1 (configuration not stated)
IC50 [12]: > 30000 nM

EC50 [15]: 9.1 nM
Compound: O=C(O)c1cccc(NC(=O)c2ccc(OCc3ccccc3)cc2)c1

EC50 [11]: 23 nM
Compound: CCn1nc(C(=O)O)cc1C1CC(c2ccc(OCc3c(-c4c(Cl)cccc4Cl)noc3C3CC3)cc2C)=NO1 (configuration not stated)
IC50 [12]: > 30000 nM

EC50 [15]: 10 nM
Compound: O=C(O)c1cccc(NC(=O)c2ccc(Oc3ccccc3)cc2)c1

half-life [18]: > 8.33 h
Compound: Cc1ccc(Cl)cc1N1CCN(C(=O)C23CC4CC(CC(C4)C2)C3)CC1

EC50 [19]: < 100 nM
Compound: CCc1onc(-c2c(Cl)cccc2Cl)c1COc1ccc(C2(C)CC2c2ccc(C(=O)O)cc2)c(Cl)c1 (configuration not stated)
